Values quoted from earlier work as cited in patent US5688524A, “Transdermal formulations for administering prazosin” (Cygnus, Inc., priority 1993, dated 1997).

How the values were obtained:
[1] = oral; incomplete absorption, GI degradation, first pass liver metabolism
[2] = tested on: benign prostatic hypertrophy (BPH); conditions: in vivo

For `COc1cc2nc(N3CCN(C(=O)c4ccco4)CC3)nc(N)c2cc1OC` [prazosin], the bioavailability [1] is listed as “incomplete bioavailability” and the “effect in treating benign prostatic hypertrophy (BPH)” value [2] is listed as “effective in treating benign prostatic hypertrophy (BPH)”.
